From patent publication US9120774B2 (University of Kansas, priority 2009, dated 2015)
Where two headings read alike, the source gives them in different places.

How the values were obtained:
Assay type in all cases: cell-based
cancer cell lines = assay: Anti-proliferative activity, statements covering several cancer cell lines; settings: for fold reduced activity versus the compound with a hydrogen at the 5-position: both breast cancer cell lines
Procedure: Upon completion of synthesis of library of compounds in Examples 23 and 24, the compounds were evaluated for anti-proliferative activity against SkBr3 (Her2 overexpressing breast cancer cells), MCF-7 (estrogen receptor positive breast cancer cells), HCT-116 (colon cancer cells characterized by wild-type p53), PL45 (pancreatic cancer cells), LNCaP (androgen sensitive prostate cancer cells) and PC-3 (androgen independent prostate cancer cells) cell lines. […] The monosubstituted benzamide variants improved activity.
(§1) Cells were maintained in a 1:1 mixture of Advanced DMEM/F12 (Gibco) supplemented with non-essential amino acids, L-glutamine (2 mM), streptomycin (500 ng/mL), penicillin (100 units/mL), and 10% FBS. Cells were grown to confluence in a humidified atmosphere (37° C., 5% CO2), seeded (2000/well, 100 μl) in 96-well plates, and allowed to attach overnight. Compound or GDA at varying concentrations in DMSO (1% DMSO final concentration) was added, and cells were returned to the incubator for 72 hours. At 72 hours, the number of viable cells was determined using an MTS/PMS cell proliferation kit (Promega) per the manufacturer's instructions. Cells incubated in 1% DMSO were used at 100% proliferation, and values were adjusted accordingly. IC50 values were calculated from separate experiments performed in triplicate using GraphPad Prism.
as §1, with “μg/mL),” for “ng/mL),”, “μL)” for “μl)”

[1] = system: PC-3 (androgen independent prostate cancer cells); assay: Anti-proliferation activity against PC-3 cells; settings: for IC50: Homo sapiens, PC-3, read-out: IC50 PC-3
Summary of the method: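 Antiproliferative activity was tested in PC-3 androgen-independent prostate cancer cells. Cells grown at 37° C. with 5% CO2 in Advanced DMEM/F12 (1:1) containing non-essential amino acids, 2 mM L-glutamine, streptomycin, penicillin and 10% FBS were plated at 2000/well in 96-well plates. Proliferation was normalized to 1% DMSO controls, and IC50 values from triplicate experiments were fitted in GraphPad Prism.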

[2] = system: SkBr3 (Her2 overexpressing breast cancer cells); assay: Anti-proliferation activity against SkBr3 cells (MTS/PMS); settings: for IC50: Homo sapiens, SK-BR-3
Summary of the method: (§2)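 Cells seeded at 2000/well, attached overnight, then exposed to compound at varying concentrations (1% DMSO final) for 72 hours at 37° C. Viable cells read by MTS/PMS, normalised to 1% DMSO as 100% proliferation. IC50 from separate triplicate experiments.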

[3] = system: LNCaP (androgen sensitive prostate cancer cells); assay: Anti-proliferation activity against LNCaP cells; settings: Homo sapiens, LNCaP
Summary of the method: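 Cells seeded at 2000/well in Advanced DMEM/F12 with 10% FBS and attached overnight, then given compound in 1% DMSO final for 72 h at 37 °C, 5% CO2. Viable cells by MTS/PMS read-out, normalised to 1% DMSO as 100% proliferation. IC50 from separate triplicate experiments.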

[4] = system: MCF-7 (estrogen receptor positive breast cancer cells); assay: Anti-proliferation activity against MCF-7 cells (MTS/PMS); settings: for IC50: Homo sapiens, MCF7, read-out: IC50 MCF-7
Summary of the method: as §2

[5] = system: HCT-116 (colon cancer cells characterized by wild-type p53); assay: Anti-proliferation activity against HCT-116 cells; settings: Homo sapiens
[6] = system: PL45 (pancreatic cancer cells); assay: Anti-proliferation activity against PL45 cells
[7] = system: Hsp90 client proteins Her2, Raf and Akt in MCF-7 breast cancer cells; assay: Hsp90 client protein degradation, Western blot in MCF-7 cells
Procedure: FIG. 17 is a western blot analysis of Hsp90 client protein degradation assays against MCF-7 breast cancer cells. The concentration of compound 46 (in μM) is denoted above each lane. Geldamycin and DMSO were used as positive and negative controls, respectively.
In order to provide additional evidence that the growth inhibitory activity manifested by the 2-indoleamide compound 46 resulted from Hsp90 inhibition, 46 was evaluated by its ability to induce degradation of Hsp90-dependent client proteins. […] Since non-Hsp90-dependent substrates such as actin remained unchanged, the inhibition of cell growth was directly correlated to the degradation of Hsp90-dependent client proteins.

[8] = Table 6, 72 hours, MTS/PMS, mean ± standard deviation
[9] = Table 6, 72 hours, MTS/PMS, mean ± standard deviation, read-out: IC50 SKBr3
[10] = Table 6, 72 hours, MTS/PMS, mean ± standard deviation, read-out: IC50 LnCaP
[11] = Table 4, biaryl analogues, n = 3
[12] = Table 4, biaryl analogues, n = 3, read-out: IC50 SkBr3
[13] = Table 5, heterocyclic analogues, n = 3
[14] = Table 5, heterocyclic analogues, n = 3, read-out: IC50 SkBr3
[15] = Table 5, heterocyclic analogues, n = 3, read-out: IC50 LNCaP

`COc1cccc(-c2cc(C(=O)Nc3cc4c(OC)cc(O[C@@H]5OC(C)(C)[C@H](OC)[C@@H](O)[C@H]5O)c(C)c4oc3=O)ccc2OC)c1` [26d, N-(7-((2R,3R,4S,5R)-3,4-dihydroxy-5-methoxy-6,6-dimethyltetrahydro-2H-pyran-2-yloxy)-5-methoxy-8-methyl-2-oxo-2H-chromen-3-yl)-3′,6-dimethoxybiphenyl-3-carboxamide] was tested, and the “fold reduced activity versus the compound with a hydrogen at the 5-position” value (cancer cell lines) was 4 fold, the IC50 [1, 8] was 11.3 ± 2 µM and the IC50 [2, 9] was 55.7 ± 6.9 µM. For the same molecule, the IC50 [3, 10] was 2 ± 0.8 µM and the IC50 [4, 8] was 82.8 µM.
For `COc1cccc(-c2cc(C(=O)Nc3cc4ccc(O[C@@H]5OC(C)(C)[C@H](OC)[C@@H](O)[C@H]5O)c(OC)c4oc3=O)ccc2OC)c1` [26g, N-(7-((2S,3R,4S,5R)-3,4-dihydroxy-5-methoxy-6,6-dimethyltetrahydro-2H-pyran-2-yloxy)-8-methoxy-2-oxo-2H-chromen-3-yl)-3′,6-dimethoxybiphenyl-3-carboxamide], the “fold improved activity over its 8-methyl counterpart” value (cancer cell lines; breast cancer cells) was 2 fold, the “fold increased activity over 8-ethyl 26h” value (cancer cell lines; breast cancer cells) was 5 fold and the IC50 [1, 8] was 2.3 ± 2.9 µM. The “fold increased activity versus the 8-methyl derivative” value ([1]; PC-3 cells) was 10 fold, the IC50 [2, 9] was 13.9 ± 1.2 µM and the IC50 [3, 10] was 1.1 ± 0.1 µM. For the same molecule, the IC50 [4, 8] was 9 ± 5.4 µM.
`COc1cc(O[C@@H]2OC(C)(C)[C@H](OC)[C@@H](O)[C@H]2O)c(C)c2oc(=O)c(NC(=O)c3cc4ccccc4[nH]3)cc12` [26l, N-(7-((2R,3R,4S,5R)-3,4-dihydroxy-5-methoxy-6,6-dimethyltetrahydro-2H-pyran-2-yloxy)-5-methoxy-8-methyl-2-oxo-2H-chromen-3-yl)-1H-indole-2-carboxamide] was tested, and the “fold reduced activity versus the compound with a hydrogen at the 5-position” value (cancer cell lines) was 15 fold, the IC50 [1, 8] was 11.8 ± 1.3 µM and the IC50 [2, 9] was 9 ± 0.8 µM. The IC50 [3, 10] was 12.9 ± 4.4 µM and the IC50 [4, 8] was 6.1 ± 1.7 µM.
`CO[C@@H]1[C@@H](O)[C@@H](O)[C@H](Oc2ccc3cc(NC(=O)c4cc5ccccc5[nH]4)c(=O)oc3c2Cc2ccccc2)OC1(C)C` [26m, N-(8-benzyl-7-((2R,3R,4S,5R)-3,4-dihydroxy-5-methoxy-6,6-dimethyltetrahydro-2H-pyran-2-yloxy)-2-oxo-2H-chromen-3-yl)-1H-indole-2-carboxamide] was tested, and the “fold less active than the 8-methyl analogue” value (cancer cell lines; PC-3 and LnCaP cells) was “about 4 fold”, the IC50 [1, 8] was 73.3 ± 3.7 µM and the IC50 [2, 9] was 38 ± 3 µM. The IC50 [3, 10] was 67.6 ± 6.3 µM, the IC50 [4, 8] was 13.2 ± 0.6 µM and the “fold less active than the 8-methyl derivative” value ([4]; MCF-7 cells) was 23 fold.
With `CO[C@@H]1[C@@H](O)[C@@H](O)[C@H](Oc2ccc3cc(NC(=O)/C=C/c4ccccc4)c(=O)oc3c2C)OC1(C)C` [compound 25, N-(7-((2R,3R,4S,5R)-3,4-Dihydroxy-5-methoxy-6,6-dimethyltetrahydro-2H-pyran-2-yloxy)-8-methyl-2-oxo-2H-chromen-3-yl)cinnamamide] the IC50 ([5]; Table 3, n = 3) was 3.2 ± 0.5 µM, the “fold increase in inhibitory activity versus the saturated derivative (23)” value (cancer cell lines) was “about 3 fold” and the IC50 ([6]; Table 3, n = 3) was 3 ± 1 µM. For the same molecule, the IC50 ([1]; Table 3, n = 3) was 3.9 ± 0.05 µM, the IC50 ([2]; Table 3, n = 3, read-out: IC50 SkBr3) was 2.6 ± 0.6 µM and the IC50 ([3]; Table 3, n = 3, read-out: IC50 LNCaP) was 4.5 ± 0.7 µM. For the same molecule, the IC50 ([4]; Table 3, n = 3) was 4 ± 0.3 µM.
For `COc1ccccc1-c1cc(C(=O)Nc2cc3ccc(O[C@@H]4OC(C)(C)[C@H](OC)[C@@H](O)[C@H]4O)c(C)c3oc2=O)ccc1OC` [compound 32, N-(7-((2R,3R,4S,5R)-3,4-Dihydroxy-5-methoxy-6,6-dimethyltetrahydro-2H-pyran-2-yloxy)-8-methyl-2-oxo-2H-chromen-3-yl)-2′,6-dimethoxybiphenyl-3-carboxamide], the IC50 [5, 11] was 5.2 ± 2.1 µM, the “fold improved inhibition compared to 28” value (cancer cell lines) was “about 2 fold” and the IC50 [6, 11] was 3.8 ± 1.7 µM. The IC50 [1, 11] was 52.3 ± 34.7 µM, the IC50 [2, 12] was 7.1 ± 0.6 µM and the IC50 ([3]; Table 4, biaryl analogues, n = 3, read-out: IC50 LNCaP) was 6 ± 1 µM. For the same molecule, the IC50 [4, 11] was 15.6 ± 6.3 µM.
In the case of `COc1ccc(C(=O)Nc2cc3ccc(O[C@@H]4OC(C)(C)[C@H](OC)[C@@H](O)[C@H]4O)c(C)c3oc2=O)cc1-c1ccccc1O` [compound 35, N-(7-((2R,3R,4S,5R)-3,4-Dihydroxy-5-methoxy-6,6-dimethyltetrahydro-2H-pyran-2-yloxy)-8-methyl-2-oxo-2H-chromen-3-yl)-2′-hydroxy-6-methoxybiphenyl-3-carboxamide], the IC50 [5, 11] is reported as 4.7 ± 1.4 µM, the “fold improved inhibition compared to 28” value (cancer cell lines) is reported as “about 8 fold” and the IC50 [6, 11] is reported as 1.4 ± 0.2 µM. For the same molecule, the IC50 [1, 11] was 16.6 ± 4.4 µM, the IC50 [2, 12] was 1.5 ± 0.1 µM and the IC50 [4, 11] was 1.5 ± 0.1 µM.
For `CO[C@@H]1[C@@H](O)[C@@H](O)[C@H](Oc2ccc3cc(NC(=O)c4cc5ccccc5[nH]4)c(=O)oc3c2C)OC1(C)C` [compound 46, N-(7-((2R,3R,4S,5R)-3,4-Dihydroxy-5-methoxy-6,6-dimethyltetrahydro-2H-pyran-2-yloxy)-8-methyl-2-oxo-2H-chromen-3-yl)-1H-indole-2-carboxamide], the IC50 [5, 13] was 0.17 ± 0.01 µM, the “Hsp90 client proteins Her2, Raf and Akt” value [7] was “degraded in a concentration-dependent manner” and the Hsp90 level [7] was “induced”. For the same molecule, the IC50 [6, 13] was 0.47 ± 0.34 µM, the IC50 [1, 13] was 22.3 ± 10.1 µM and the IC50 [2, 14] was 0.37 ± 0.06 µM. For the same molecule, the “fold increased activity compared to novobiocin” value ([2]; SkBr3 cells) was “greater than 500 fold”, the IC50 [3, 15] was 12.2 µM and the IC50 [4, 13] was 0.57 ± 0.07 µM.
With `CO[C@@H]1[C@@H](O)[C@@H](O)[C@H](Oc2ccc3cc(NC(=O)c4c[nH]c5ccccc45)c(=O)oc3c2C)OC1(C)C` [compound 47, N-(7-((2R,3R,4S,5R)-3,4-Dihydroxy-5-methoxy-6,6-dimethyltetrahydro-2H-pyran-2-yloxy)-8-methyl-2-oxo-2H-chromen-3-yl)-1H-indole-3-carboxamide] the IC50 [5, 13] was 3.5 ± 0.5 µM, the “times less effective than compound 46” value (cancer cell lines) was 3-10 times and the IC50 [6, 13] was 1.8 ± 0.3 µM. The IC50 [1, 13] was 4.8 ± 2.4 µM, the IC50 [2, 14] was 12.2 ± 1.5 µM and the IC50 [3, 15] was 2.3 ± 0.1 µM. For the same molecule, the IC50 [4, 13] was 5.3 ± 0.3 µM.
